From patent US12097210B2, “Concomitant administration of glucocorticoid receptor modulators and CYP3A inhibitors” (Corcept Therapeutics, Inc., priority 2017, dated 2024)

Assays:
CYP3A = details: 38 published studies, 411 subjects; concomitantly administered CYP3A inhibitor; cited from earlier work
[1] = Example 3: cross-study comparison of exposure with historic study of 1200 mg mifepristone OD; type: in vivo, human; details: Test: Day 17, 600 mg mifepristone OD + 200 mg Ketoconazole BID; Reference: historic study Day 7, 1200 mg mifepristone OD alone; after 34% fat meal
clinical = details: male, human, in vivo
Description: This study was conducted in accordance with Good Clinical Practice under the guidance of an Institutional Review Board and in accordance with applicable local legal and regulatory requirements.
KORLYM® was supplied in 300 mg tablets for oral administration. Three or four tablets were administered once daily (OD) to provide either the 900 mg or 1200 mg per day dose.
Itraconazole was supplied • in 100 mg capsules for oral administration. Two capsules were administered once daily (OD) to provide the 200 mg per day dose.
All drug administrations were oral and were given after the morning meal.
The inclusion criteria required, among other criteria, that the subjects be healthy male subjects between the ages of 18 and 65, weigh more than 110 pounds, and have a body mass index (BMI) of 18 to 32 kg/m^2. The design included a Screening Period of up to 3 weeks (subjects were screened at a time between days −21 to −1 prior to the first treatment period), three 14-day treatment periods, and a Follow-Up (FU) Period of 14 days for safety observation.
Subjects meeting the inclusion criteria (n=22) were administered drug daily and blood samples were taken on the days indicated below during Periods 1-3 and on day 43 of the follow-up period.
Subjects presented at the Clinical Research Unit (CRU) after an 8-hour overnight fast, then predose PK samples were taken and other evaluations (predose electrocardiograms (ECGs), plasma cortisol and ACTH, serum chemistry tests) were performed. […] On the specific days indicated above, additional blood draws for determining 24-hour PK profiles were performed.
Pharmacokinetic (PK) parameters measured and computed included AUC (area under the concentration−time curve), AUC0-24 (AUC values from time 0 to 24 hours postdose), Cmax (maximum concentration), and Css (average steady-state concentration, calculated as AUC0-24/24).

[2] = Example 2: effect of a 400 mg single dose of ketoconazole on PK of an 8-day regimen of 300 mg or 600 mg OD mifepristone after moderate fat breakfast; type: in vivo, human; details: 300 or 600 mg OD mifepristone
Description: This was an open-label study in healthy male subjects. […] The 400 mg single dose of ketoconazole was given to all subjects on day 8.
METHODOLOGY: Twelve subjects were enrolled, six in Cohort 1 and 6 in Cohort 2.
(§1) Subjects were discharged on Day 11.
(§2) Subjects were discharged on Day 11. Subjects in both cohorts returned to study center on Day 13 for safety monitoring, collection of the 120-hour PK draw, and completion of the Termination Visit procedures, followed by discharge from the study. To the extent possible, any adverse events deemed study drug-related and that were ongoing at the time of discharge from the study were followed-up to resolution or until a determination was made that the unresolved event was stable.
DIAGNOSIS AND MAIN […] FOR INCLUSION: Healthy male volunteers between the ages of 18 to 45 years of age with a body mass index (BMI) ranging between 19 and 32 kg/m2 and a weight of at least 60 kg (132 lbs) were enrolled. Subjects had no clinically significant abnormal findings on the physical examination, ECG, blood pressure, heart rate, medical history, or clinical laboratory results during screening. The QTc interval at screening was less than 450 msec.
(§3) DURATION OF TREATMENT: Up to a total of 28 days, including up to 2 weeks screening, dosing on Days 1-8, safety observation, and PK sample collection through Day 13.
(§4) Additionally, comparisons were made between the PK results of cohort 1 and 2. Pharmacokinetic parameters Cmax, T½ and total AUC were calculated for plasma concentrations of ketoconazole following the single dose on Day 8. Descriptive statistics (count, mean, median, standard deviation, minimum, maximum, and % coefficient of variation) were provided. Ketoconazole concentrations were listed and summarized. GM means of Cmax and total AUC were compared for the single dose in this study to the combined data of reported 400 mg single doses of ketoconazole of healthy subjects from the literature.

[3] = Example 3: effect of ketoconazole 200 mg twice daily on PK of mifepristone 600 mg once daily and metabolites, with food; type: in vivo, human; details: for concentrations on Day 17 compared with Day 12: 600 mg mifepristone daily with 200 mg ketoconazole twice daily vs mifepristone alone; for Ratio % Test/Reference, AUC0-24 / Ratio % Test/Reference, Cmax: Test: Day 17, 600 mg mifepristone OD + 200 mg Ketoconazole BID, Reference: Day 12, 600 mg mifepristone OD, geometric mean ratio
Description: (§5) A single dose of ketoconazole was administered on Day −1.
(§6) The study was a two period study design.
Concentrations of RU 42633 and RU 42848 were similar on Day 17 and Day 12.

[4] = Example 3: effect of co-administration with mifepristone on ketoconazole PK; type: in vivo, human
Description: as §5, §6

[5] = Example 2: PK of ketoconazole 400 mg single dose on Day 8 of mifepristone regimen; type: in vivo, human; details: single 400 mg ketoconazole dose on Day 8
Description: as §1, §2, §3, §4

[6] = 600 mg mifepristone OD + 200 mg ketoconazole BID
[7] = 400 mg ketoconazole (200 mg twice per day) with 600 mg mifepristone per day
[8] = Test: Day 17, 600 mg mifepristone OD + 200 mg Ketoconazole BID, Reference: Day −1, 200 mg Ketoconazole single dose

Ratio % Test/Ref, AUC0-24 [1] | Ratio % Test/Ref, Cmax [1] | AUC(0-t) (clinical; 900 mg) | Cmax (clinical; 900 mg) | AUC(0-t) (clinical; 1200 mg) | Cmax (clinical; 1200 mg) | concentrations on Day 17 compared with Day 12 [3] | Ratio % Test/Reference, AUC0-24 [3] | Ratio % Test/Reference, Cmax [3] | change in exposure on co-administration with ketoconazole [3, 6] | SMILES | increase of plasma levels (AUC) of orally administered midazolam (CYP3A) | other results
 |  |  |  |  |  |  |  |  |  | CC[C@H]1OC(=O)[C@H](C)[C@@H](O[C@H]2C[C@@](C)(OC)[C@@H](O)[C@H](C)O2)[C@H](C)[C@@H](O[C@@H]2O[C@H](C)C[C@H](N(C)C)[C@H]2O)[C@](C)(OC)C[C@@H](C)C(=O)[C@H](C)[C@@H](O)[C@]1(C)O [clarithromycin] | more than 6 fold | 
118.18% | 116.55% | 15100 ng·h/mL | 755 ng/mL | 16900 ng·h/mL | 853 ng/mL | higher | 166.86% | 169.13% |  | CN(C)c1ccc([C@H]2C[C@@]3(C)[C@@H](CC[C@@]3(O)C#CCO)[C@@H]3CCC4=CC(=O)CCC4=C32)cc1 [RU 42698, (8S,11R,13S,14S,17S)-11-[4-(dimethylamino)phenyl]-17-hydroxy-17-(3-hydroxyprop-1-ynyl)-13-methyl-1,2,6,7,8,11,12,14,15,16-decahydrocyclopenta[a]phenanthren-3-one] |  | mean metabolite exposure compared with mifepristone [2]: lower; mean increase in exposure on co-administration with ketoconazole [3, 6]: approximately 70%; share of the total steady-state AUC0-24 of mifepristone, RU42633, RU42698, RU42848 ([3]; in the presence of ketoconazole): 13%; share of the total steady-state AUC0-24 of mifepristone, RU42633, RU42698, RU42848 ([3]; mifepristone alone): 9%
81.43% | 82.45% | 33900 ng·h/mL | 1630 ng/mL | 36500 ng·h/mL | 1770 ng/mL | similar | 94.88% | 95.48% | little change in exposure | CC#C[C@]1(O)CC[C@H]2[C@@H]3CCC4=CC(=O)CCC4=C3[C@@H](c3ccc(N)cc3)C[C@@]21C [RU 42848, (8S,11R,13S,14S,17S)-11-(4-aminophenyl)-17-hydroxy-13-methyl-17-prop-1-ynyl-1,2,6,7,8,11,12,14,15,16-decahydrocyclopenta[a]phenanthren-3-one] |  | trough concentrations through the start of ketoconazole administration (Day 13) ([3]; FIG. 1, 600 mg mifepristone OD): increasing day-by-day
 |  |  |  |  |  |  |  |  |  | CC(=O)N1CCN(c2ccc(OCC3COC(Cn4ccnc4)(c4ccc(Cl)cc4Cl)O3)cc2)CC1 (stereo not drawn) [Ketoconazole, 1-acetyl-4-[4-[[2-(2,4-dichlorophenyl)-2-[(1H-imidazol-1-yl)-methyl]-1,3-dioxolan-4-yl]methoxy]phenyl]piperazine] | more than 11 fold | increase in ketoconazole AUC with concomitant mifepristone [4, 7]: 253%; increase in ketoconazole Cmax with concomitant mifepristone [4, 7]: 365%; Ratio % Test/Reference, AUC [4, 8]: 365.36%; Ratio % Test/Reference, Cmax [4, 8]: 252.71%; ketoconazole half-life on either mifepristone regimen [5]: not appreciably different
91.34% | 96.31% | 40300 ng·h/mL | 1970 ng/mL | 45800 ng·h/mL | 2160 ng/mL | similar | 102.33% | 105.73% | little change in exposure | CC#C[C@]1(O)CC[C@H]2[C@@H]3CCC4=CC(=O)CCC4=C3[C@@H](c3ccc(NC)cc3)C[C@@]21C [RU 42633, (8S,11R,13S,14S,17S)-17-hydroxy-13-methyl-11-[4-(methylamino)phenyl]-17-prop-1-ynyl-1,2,6,7,8,11,12,14,15,16-decahydrocyclopenta[a]phenanthren-3-one] |  | 
 |  |  |  |  |  |  |  |  |  | CCC(C)n1ncn(-c2ccc(N3CCN(c4ccc(OCC5COC(Cn6cncn6)(c6ccc(Cl)cc6Cl)O5)cc4)CC3)cc2)c1=O (stereo not drawn) [itraconazole] | more than 7 fold | 
